Test results reported in patent US8440634B2, “Bicyclic derivatives of morphine-6-glucuronide, preparation method thereof and use of same in therapeutics” (Sanofi, priority 2008, dated 2013).

Columns and labels:
[1] = tested on: nociceptive reflex response (tail removal caused by painful heat stimulus); test: "Tail-Flick" test, analgesic activity; type: in vivo, male Swiss mice; conditions: mice
Protocol: Tests consisting in measuring the in vivo activity of the compounds of the invention on a nociceptive reflex response were performed. In this approach, the latency of the animal's nociceptive reflex response is measured as a pain indicator.
The analgesic activity was determined by means of the “tail-flick” test in male Swiss mice (Iffa Credo). This test is based on the spontaneous nociceptive reflex of removal of the animal's tail caused by a painful heat stimulus (infrared source). The “tail-flick” test (D'Amour-Smith test, 1941, Pharmacol. Exp. Ther.; 72: 74-79) consists, after administering a product, in placing a mouse's tail at the focal point of the infrared source so as to produce a nociceptive heat stimulus (surface temperature of about 55-60° C.). The mouse's reaction time (RT) (latency between the moment when the light beam is switched on and the moment when the mouse removes its tail) was measured in duplicate at different times ranging from 20 minutes to 120 minutes after administration of the product. The heat intensity is regulated such that this removal reflex is between 0.5 and 3.5 seconds in the control animals, and arbitrarily represents the criterion for minimum analgesia (0%). Two reaction time measurements were taken before administration of the product for each mouse, to establish a baseline measurement time. A maximum time of 8 seconds was chosen as the maximum reaction time so as not to induce tissue damage by burning the animals, and arbitrarily represents the criterion for maximum analgesia (100%). The reaction time is increased by the analgesics relative to a control animal not receiving any treatment. The products were administered subcutaneously and orally at doses of between 1.25 and 30 mg/kg. […]
The percentage of analgesic activity (% MPE) is determined by the following formula: %MPE=(RTpost-administration−RTpre-administration)*100/(RTmax−RTpre-administration).

## CN1CC[C@]23c4c5ccc(O)c4O[C@H]2C(O[C@@H]2OC(c4nc6n(n4)CCC(O)N6)[C@@H](O)C(O)C2O)C=CC3[C@H]1C5 (stereo partly drawn) [morphin-6-yl 5-C-(5-hydroxy-4,5,6,7-tetrahydro[1,2,4]triazolo[1,5-a]pyrimidin-2-yl)-β-D-xylopyranoside]
[1]; Mus musculus, sc, 1 h, subcutaneous, determined 60 minutes after administration
  ED50: < 1.25 mg/kg
[1]; subcutaneous administration
  duration of the analgesic action: more than 120 minutes
[1]; subcutaneous, dose of 1.25 mg/kg
  maximum percentage of analgesic activity (% MPE max index): 80%
other
  melting point: 201 °C
